What was measured:
Assay in all cases: Test B preemergence/postemergence greenhouse plant response rating 0 to 10
barley = format: in vivo, Hordeum vulgare; conditions: for Plant response rating, Barley: 0 to 10 scale
How it was run: (§1)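 Test chemicals were sprayed onto freshly planted seed and, concurrently, onto young plants between the one and four leaf stage. After a twelve- to sixteen-day greenhouse period, each species was visually compared with untreated controls.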

sorghum = format: in vivo, Sorghum bicolor; conditions: for Plant response rating, Sorghum: 0 to 10 scale
How it was run: as §1

rape = format: in vivo, Brassica napus; conditions: for Plant response rating, Rape: 0 to 10 scale
How it was run: as §1

bedstraw = format: in vivo, Galium aparine; conditions: for Plant response rating, Bedstraw: 0 to 10 scale
How it was run: as §1

cotton = format: in vivo, Gossypium hirsutum; conditions: for Plant response rating, Cotton: 0 to 10 scale
How it was run: as §1

blackgrass = format: in vivo, Alopecurus myosuroides; conditions: for Plant response rating, Blackgrass: 0 to 10 scale
How it was run: as §1

lambsquarters = format: in vivo, Chenopodium album; conditions: for Plant response rating, Lambsquarter: 0 to 10 scale
How it was run: as §1

velvetleaf = format: in vivo, Abutilon theophrasti; conditions: for Plant response rating, Velvetleaf: 0 to 10 scale
How it was run: as §1

chickweed = format: in vivo, Stellaria media; conditions: for Plant response rating, Chickweed: 0 to 10 scale
How it was run: as §1

purple nutsedge = format: in vivo, Cyperus rotundus; conditions: for Plant response rating, Nutsedge: 0 to 10 scale
How it was run: as §1

wild oat = format: in vivo, Avena fatua; conditions: for Plant response rating, Wild oat: 0 to 10 scale
How it was run: as §1

sugar beet = format: in vivo, Beta vulgaris; conditions: for Plant response rating, Sugar beet: 0 to 10 scale
How it was run: as §1

corn = format: in vivo, Zea mays; conditions: for Plant response rating, Corn: 0 to 10 scale
How it was run: as §1

cheatgrass = format: in vivo, Bromus secalinus; conditions: for Plant response rating, Cheatgrass: 0 to 10 scale
How it was run: as §1

barnyardgrass = format: in vivo, Echinochloa crus-galli; conditions: for Plant response rating, Barnyardgrass: 0 to 10 scale
How it was run: as §1

wheat = format: in vivo, Triticum aestivum; conditions: for Plant response rating, Wheat: 0 to 10 scale
How it was run: as §1

giant foxtail = format: in vivo, Setaria faberii; conditions: for Plant response rating, Giant foxtail: 0 to 10 scale
How it was run: as §1

rice = format: in vivo, Oryza sativa; conditions: for Plant response rating, Rice: 0 to 10 scale
How it was run: as §1

wild buckwheat = format: in vivo, Polygonum convolvulus; conditions: for Plant response rating, Wild buckwheat: 0 to 10 scale
How it was run: as §1

morningglory = format: in vivo, Ipomoea hederacea; conditions: for Plant response rating, Morningglory: 0 to 10 scale
How it was run: as §1

cocklebur = format: in vivo, Xanthium pensylvanicum; conditions: for Plant response rating, Cocklebur: 0 to 10 scale
How it was run: as §1

soybean = format: in vivo, Glycine max; conditions: for Plant response rating, Soybean: 0 to 10 scale
How it was run: as §1

crabgrass = format: in vivo, Digitaria spp.; conditions: for Plant response rating, Crabgrass: 0 to 10 scale
How it was run: as §1

Compound: CC(C)OC(=O)COc1cc(-c2nn3c(c2Br)CCCC3)c(F)cc1Cl [Compound 64]
- Plant response rating, Barley (barley; POSTEMERGENCE, Rate 50 g/ha): 2
- Plant response rating, Barley (barley; PREEMERGENCE, Rate 50 g/ha): 0
- Plant response rating (0 to 10 scale), Barley (barley; PREEMERGENCE, Rate 200 g/ha): 0
- Plant response rating, Barley (barley; Rate 200 g/ha, POSTEMERGENCE): 3
- Plant response rating, Sorghum (sorghum; POSTEMERGENCE, Rate 50 g/ha): 4
- Plant response rating, Sorghum (sorghum; PREEMERGENCE, Rate 50 g/ha): 0
- Plant response rating (0 to 10 scale), Sorghum (sorghum; PREEMERGENCE, Rate 200 g/ha): 0
- Plant response rating, Sorghum (sorghum; Rate 200 g/ha, POSTEMERGENCE): 4
- Plant response rating, Rape (rape; POSTEMERGENCE, Rate 50 g/ha): 7
- Plant response rating, Rape (rape; PREEMERGENCE, Rate 50 g/ha): 0
- Plant response rating (0 to 10 scale), Rape (rape; PREEMERGENCE, Rate 200 g/ha): 0
- Plant response rating, Rape (rape; Rate 200 g/ha, POSTEMERGENCE): 10
- Plant response rating, Bedstraw (bedstraw; POSTEMERGENCE, Rate 50 g/ha): 10
- Plant response rating, Bedstraw (bedstraw; PREEMERGENCE, Rate 50 g/ha): 0
- Plant response rating (0 to 10 scale), Bedstraw (bedstraw; PREEMERGENCE, Rate 200 g/ha): 1
- Plant response rating, Bedstraw (bedstraw; Rate 200 g/ha, POSTEMERGENCE): 10
- Plant response rating, Cotton (cotton; POSTEMERGENCE, Rate 50 g/ha): 10
- Plant response rating, Cotton (cotton; PREEMERGENCE, Rate 50 g/ha): 0
- Plant response rating (0 to 10 scale), Cotton (cotton; PREEMERGENCE, Rate 200 g/ha): 0
- Plant response rating, Cotton (cotton; Rate 200 g/ha, POSTEMERGENCE): 10
- Plant response rating, Blackgrass (blackgrass; POSTEMERGENCE, Rate 50 g/ha): 2
- Plant response rating, Blackgrass (blackgrass; PREEMERGENCE, Rate 50 g/ha): 1
- Plant response rating (0 to 10 scale), Blackgrass (blackgrass; PREEMERGENCE, Rate 200 g/ha): 2
- Plant response rating, Blackgrass (blackgrass; Rate 200 g/ha, POSTEMERGENCE): 3
- Plant response rating, Lambsquarter (lambsquarters; POSTEMERGENCE, Rate 50 g/ha): 9
- Plant response rating, Lambsquarter (lambsquarters; PREEMERGENCE, Rate 50 g/ha): 10
- Plant response rating (0 to 10 scale), Lambsquarter (lambsquarters; PREEMERGENCE, Rate 200 g/ha): 10
- Plant response rating, Lambsquarter (lambsquarters; Rate 200 g/ha, POSTEMERGENCE): 10
- Plant response rating, Velvetleaf (velvetleaf; POSTEMERGENCE, Rate 50 g/ha): 10
- Plant response rating, Velvetleaf (velvetleaf; PREEMERGENCE, Rate 50 g/ha): 3
- Plant response rating (0 to 10 scale), Velvetleaf (velvetleaf; PREEMERGENCE, Rate 200 g/ha): 6
- Plant response rating, Velvetleaf (velvetleaf; Rate 200 g/ha, POSTEMERGENCE): 10
- Plant response rating, Chickweed (chickweed; POSTEMERGENCE, Rate 50 g/ha): 2
- Plant response rating, Chickweed (chickweed; PREEMERGENCE, Rate 50 g/ha): 0
- Plant response rating (0 to 10 scale), Chickweed (chickweed; PREEMERGENCE, Rate 200 g/ha): 0
- Plant response rating, Chickweed (chickweed; Rate 200 g/ha, POSTEMERGENCE): 5
- Plant response rating, Nutsedge (purple nutsedge; POSTEMERGENCE, Rate 50 g/ha): 2
- Plant response rating, Nutsedge (purple nutsedge; PREEMERGENCE, Rate 50 g/ha): 0
- Plant response rating (0 to 10 scale), Nutsedge (purple nutsedge; PREEMERGENCE, Rate 200 g/ha): 0
- Plant response rating, Nutsedge (purple nutsedge; Rate 200 g/ha, POSTEMERGENCE): 2
- Plant response rating, Wild oat (wild oat; POSTEMERGENCE, Rate 50 g/ha): 3
- Plant response rating, Wild oat (wild oat; PREEMERGENCE, Rate 50 g/ha): 0
- Plant response rating (0 to 10 scale), Wild oat (wild oat; PREEMERGENCE, Rate 200 g/ha): 0
- Plant response rating, Wild oat (wild oat; Rate 200 g/ha, POSTEMERGENCE): 3
- Plant response rating, Sugar beet (sugar beet; POSTEMERGENCE, Rate 50 g/ha): 10
- Plant response rating, Sugar beet (sugar beet; PREEMERGENCE, Rate 50 g/ha): 9
- Plant response rating (0 to 10 scale), Sugar beet (sugar beet; PREEMERGENCE, Rate 200 g/ha): 10
- Plant response rating, Sugar beet (sugar beet; Rate 200 g/ha, POSTEMERGENCE): 10
- Plant response rating, Corn (corn; POSTEMERGENCE, Rate 50 g/ha): 5
- Plant response rating, Corn (corn; PREEMERGENCE, Rate 50 g/ha): 0
- Plant response rating (0 to 10 scale), Corn (corn; PREEMERGENCE, Rate 200 g/ha): 0
- Plant response rating, Corn (corn; Rate 200 g/ha, POSTEMERGENCE): 3
- Plant response rating, Cheatgrass (cheatgrass; POSTEMERGENCE, Rate 50 g/ha): 2
- Plant response rating, Cheatgrass (cheatgrass; PREEMERGENCE, Rate 50 g/ha): 2
- Plant response rating (0 to 10 scale), Cheatgrass (cheatgrass; PREEMERGENCE, Rate 200 g/ha): 2
- Plant response rating, Cheatgrass (cheatgrass; Rate 200 g/ha, POSTEMERGENCE): 3
- Plant response rating, Barnyardgrass (barnyardgrass; POSTEMERGENCE, Rate 50 g/ha): 5
- Plant response rating, Barnyardgrass (barnyardgrass; PREEMERGENCE, Rate 50 g/ha): 0
- Plant response rating (0 to 10 scale), Barnyardgrass (barnyardgrass; PREEMERGENCE, Rate 200 g/ha): 1
- Plant response rating, Barnyardgrass (barnyardgrass; Rate 200 g/ha, POSTEMERGENCE): 7
- Plant response rating, Wheat (wheat; POSTEMERGENCE, Rate 50 g/ha): 3
- Plant response rating, Wheat (wheat; PREEMERGENCE, Rate 50 g/ha): 0
- Plant response rating (0 to 10 scale), Wheat (wheat; PREEMERGENCE, Rate 200 g/ha): 0
- Plant response rating, Wheat (wheat; Rate 200 g/ha, POSTEMERGENCE): 2
- Plant response rating, Giant foxtail (giant foxtail; POSTEMERGENCE, Rate 50 g/ha): 3
- Plant response rating, Giant foxtail (giant foxtail; PREEMERGENCE, Rate 50 g/ha): 0
- Plant response rating (0 to 10 scale), Giant foxtail (giant foxtail; PREEMERGENCE, Rate 200 g/ha): 0
- Plant response rating, Giant foxtail (giant foxtail; Rate 200 g/ha, POSTEMERGENCE): 3
- Plant response rating, Rice (rice; POSTEMERGENCE, Rate 50 g/ha): 4
- Plant response rating, Rice (rice; PREEMERGENCE, Rate 50 g/ha): 0
- Plant response rating (0 to 10 scale), Rice (rice; PREEMERGENCE, Rate 200 g/ha): 2
- Plant response rating, Rice (rice; Rate 200 g/ha, POSTEMERGENCE): 5
- Plant response rating, Wild buckwheat (wild buckwheat; POSTEMERGENCE, Rate 50 g/ha): 10
- Plant response rating, Wild buckwheat (wild buckwheat; PREEMERGENCE, Rate 50 g/ha): 5
- Plant response rating (0 to 10 scale), Wild buckwheat (wild buckwheat; PREEMERGENCE, Rate 200 g/ha): 10
- Plant response rating, Wild buckwheat (wild buckwheat; Rate 200 g/ha, POSTEMERGENCE): 10
- Plant response rating, Morningglory (morningglory; POSTEMERGENCE, Rate 50 g/ha): 9
- Plant response rating, Morningglory (morningglory; PREEMERGENCE, Rate 50 g/ha): 0
- Plant response rating (0 to 10 scale), Morningglory (morningglory; PREEMERGENCE, Rate 200 g/ha): 8
- Plant response rating, Morningglory (morningglory; Rate 200 g/ha, POSTEMERGENCE): 10
- Plant response rating, Cocklebur (cocklebur; POSTEMERGENCE, Rate 50 g/ha): 10
- Plant response rating, Cocklebur (cocklebur; PREEMERGENCE, Rate 50 g/ha): 0
- Plant response rating (0 to 10 scale), Cocklebur (cocklebur; PREEMERGENCE, Rate 200 g/ha): 2
- Plant response rating, Cocklebur (cocklebur; Rate 200 g/ha, POSTEMERGENCE): 10
- Plant response rating, Soybean (soybean; POSTEMERGENCE, Rate 50 g/ha): 6
- Plant response rating, Soybean (soybean; PREEMERGENCE, Rate 50 g/ha): 0
- Plant response rating (0 to 10 scale), Soybean (soybean; PREEMERGENCE, Rate 200 g/ha): 0
- Plant response rating, Soybean (soybean; Rate 200 g/ha, POSTEMERGENCE): 5
- Plant response rating, Crabgrass (crabgrass; POSTEMERGENCE, Rate 50 g/ha): 3
- Plant response rating, Crabgrass (crabgrass; PREEMERGENCE, Rate 50 g/ha): 0
- Plant response rating (0 to 10 scale), Crabgrass (crabgrass; PREEMERGENCE, Rate 200 g/ha): 0
- Plant response rating, Crabgrass (crabgrass; Rate 200 g/ha, POSTEMERGENCE): 5
